# Where “and” joins values, the source holds several entries; their conditions need not be identical. Equal entries are not always repeated. Where two headings read alike, the source gives them in different places.
# Columns and labels:
# stHIV-A19 = experiment: Multi-round replication assay of stHIV-A19 in pigtail macaque PBMCs (PERT readout); type: cell-based, simian-tropic HIV-1; details: for mean EC95 against stHIV-A19 in pigtail macaque PBMC: PTM PBMCs, three donors, RT in supernatant at 7 days, calculated from EC50 with Hill coefficient 3.51
# Procedure: Infectious stocks of stHIV-A19,[23] HIV-1 NL4-3, and SIVmac239 were produced in HEK-293T (RRID: CVCL_1926) cells transfected with full-length viral genome plasmids using the TransIT HEK-293 transfection reagent (Mirus Bio) according to the manufacturer’s instructions. Virus stock infectious titres were determined on TZM-bl reporter cells (RRID: CVCL_B478) as previously described.[26] For experiments using SupT1-CCR5 target cells (RRID: CVCL_X633),[27] cultures were maintained in RPMI 1640 medium supplemented with 10% foetal bovine serum (FBS), 2 mM glutamine, 100 U/ml penicillin, and 100 μg/ml streptomycin. SupT1-CCR5 cells were inoculated with stHIV-A19, HIV-1 NL4-3, or SIVmac239 at a multiplicity of infection (MOI) = 0.0125 and cultured at 37 °C for 4 h. Cells were then washed three times to remove input virus, counted, and cultured in triplicate in growth media containing serial threefold dilutions of LEN or no LEN (control). The concentration of DMSO (LEN vehicle) was maintained at 0.5% for all cultures. Culture supernatants were collected 7 days post-inoculation, clarified by centrifugation, and stored at −80 °C for later quantification of vRNA by quantitative reverse transcription polymerase chain reaction (qRT-PCR). Primary human peripheral blood mononuclear cells (PBMCs) from anonymous HIV-negative donors were isolated from leukopaks obtained from the New York Blood Center for experiments using primary human and PTM PBMC. […] The stHIV-A19 stock was quantified with a SYBR Green-based qPCR-based product-enhanced RT (PERT) assay using a purified reverse transcriptase (RT) protein standard, as previously described.[28] […] After 7 days, the virus in culture supernatants was quantified using the PERT assay. […] The EC95 for LEN against stHIV-A19 was then calculated from its corresponding EC50 values using the ECanything equation: ECF = EC50 × (F/100-F)^1/n, where F equals the percent response (e.g., 95) and n equals the Hill coefficient for LEN (n = 3.51) as previously described.[16]
# [1] = type: in vivo, pigtail macaques (Macaca nemestrina)
# Procedure: Sixteen male, purpose-bred pigtail macaques (Macaca nemestrina; ages 4.6–8.5 years at the time of study initiation) were housed at NIH-Bethesda (Supplementary Table S1). All study animals received enrofloxacin (10 mg/kg, administered orally, once per day for 10 days), paromomycin (25 mg/kg, administered orally, twice daily for 7–10 days), and fenbendazole (50 mg/kg administered orally, once per day for 5 days) two weeks to 43 months prior to study initiation. Lenacapavir or drug vehicle (sterile, preservative-free 57.5% w/v polyethylene glycol 300 in water) doses were administered to sedated animals via SC injection into the scapular region such that no more than 2 ml of solution was injected into a single SC site. Animals in the LEN pharmacokinetic evaluation study (N = 6) each received two doses of LEN, both at 15 mg/kg (N = 3) or at 50 mg/kg (N = 3), 6 weeks apart. Animals in the virus challenge experiment each received a single dose of LEN at 25 mg/kg (N = 3, LEN PrEP group) or drug vehicle (N = 4, vehicle control group) 30 days prior to stHIV-A19 challenge, or a cART regimen consisting of tenofovir disoproxil fumarate (TDF), emtricitabine (FTC), and dolutegravir (DTG) (N = 3, TDF/FTC/DTG group), coformulated and administered as previously described[29]^,[30] for 7 days beginning 3 days prior to stHIV-A19 challenge (Supplementary Figure S1). Hair was clipped and skin marked at LEN and vehicle injection sites to allow for subsequent visual and manual assessment and scoring of potential ISRs by non-blinded veterinary care staff. Complete blood counts (CBC) and serum chemistries were monitored prior to and at 2- to 4-week intervals after LEN administration for at least one year. Following the first dose of LEN in the PK study, one animal in the 50-mg/kg dosing group received 7 consecutive days of daily ketoprofen (2 mg/kg) administered intramuscularly for ISR analgesia at veterinary discretion. For the second dose of LEN in the PK study, all animals in the 50-mg/kg dosing group received 5–7 consecutive days of twice daily oral carprofen (2 mg/kg) analgesia administered prophylactically starting on the day of LEN dosing. In the IV challenge PrEP study, all LEN and vehicle control animals received 3–5 consecutive days of twice daily oral carprofen (2 mg/kg) analgesia administered prophylactically starting on the day of injection. For virus challenge, PrEP study animals each received 1 × 10^5 infectious units of stHIV-A19 injected intravenously. After LEN washout, LEN PrEP group animals received a single 50-mg/kg dose of rhesusized depleting anti-CD8α antibody (MT807R1, RRID: AB_2716320, NIH Nonhuman Primate Reagent Resource), administered SC to anesthetized animals.
# SIVmac239 = experiment: Multi-round viral replication assay in SupT1-CCR5 cells, SIVmac239; type: cell-based, SIV
# Procedure: Infectious stocks of stHIV-A19,[23] HIV-1 NL4-3, and SIVmac239 were produced in HEK-293T (RRID: CVCL_1926) cells transfected with full-length viral genome plasmids using the TransIT HEK-293 transfection reagent (Mirus Bio) according to the manufacturer’s instructions. Virus stock infectious titres were determined on TZM-bl reporter cells (RRID: CVCL_B478) as previously described.[26] For experiments using SupT1-CCR5 target cells (RRID: CVCL_X633),[27] cultures were maintained in RPMI 1640 medium supplemented with 10% foetal bovine serum (FBS), 2 mM glutamine, 100 U/ml penicillin, and 100 μg/ml streptomycin. […] Cells were then washed three times to remove input virus, counted, and cultured in triplicate in growth media containing serial threefold dilutions of LEN or no LEN (control). […] Culture supernatants were collected 7 days post-inoculation, clarified by centrifugation, and stored at −80 °C for later quantification of vRNA by quantitative reverse transcription polymerase chain reaction (qRT-PCR). […] The stHIV-A19 stock was quantified with a SYBR Green-based qPCR-based product-enhanced RT (PERT) assay using a purified reverse transcriptase (RT) protein standard, as previously described.[28] […] After 7 days, the virus in culture supernatants was quantified using the PERT assay. […]
smiles,measurement,setting,value
"CC(C)(C#Cc1ccc(-c2ccc(Cl)c3c(NS(C)(=O)=O)nn(CC(F)(F)F)c23)c([C@H](Cc2cc(F)cc(F)c2)NC(=O)Cn2nc(C(F)(F)F)c3c2C(F)(F)[C@@H]2C[C@H]32)n1)S(C)(=O)=O [LEN, Lenacapavir]",plasma protein binding-adjusted EC95 (PA-EC95) against stHIV-A19 in PTMs,stHIV-A19; EC95 in PTM PBMC adjusted by 9.7-fold plasma shift,1.46 (±0.07 SD) nM and 1.46 nM
same,mean EC95 against stHIV-A19 in pigtail macaque PBMC,stHIV-A19,149 ± 7 pM
same,mean EC95 against stHIV-A19 in pigtail macaque PBMC,stHIV-A19; listed as Lenacapavir,149 (±7 SD) pM
same,ISR cumulative incidence: Erythema,"[1]; 15 mg/kg SC, Dose 1",3/3
same,ISR cumulative incidence: Hyperkeratosis,"[1]; 15 mg/kg SC, Dose 1",2/3
same,ISR cumulative incidence: Nodule,"[1]; 15 mg/kg SC, Dose 1",3/3
same,ISR cumulative incidence: Ulceration,"[1]; 15 mg/kg SC, Dose 1",0/3
same,ISR cumulative incidence: Erythema,"[1]; 15 mg/kg SC, Dose 2",0/3
same,ISR cumulative incidence: Hyperkeratosis,"[1]; 15 mg/kg SC, Dose 2",0/3
same,ISR cumulative incidence: Nodule,"[1]; 15 mg/kg SC, Dose 2",1/3
same,ISR cumulative incidence: Ulceration,"[1]; 15 mg/kg SC, Dose 2",0/3
same,ISR cumulative incidence: Erythema,"[1]; 25 mg/kg SC, Dose 1",0/3
same,ISR cumulative incidence: Hyperkeratosis,"[1]; 25 mg/kg SC, Dose 1",2/3
same,ISR cumulative incidence: Nodule,"[1]; 25 mg/kg SC, Dose 1",3/3
same,ISR cumulative incidence: Ulceration,"[1]; 25 mg/kg SC, Dose 1",2/3
same,ISR cumulative incidence: Erythema,"[1]; 50 mg/kg SC, Dose 1",0/3
same,ISR cumulative incidence: Hyperkeratosis,"[1]; 50 mg/kg SC, Dose 1",0/3
same,ISR cumulative incidence: Nodule,"[1]; 50 mg/kg SC, Dose 1",3/3
same,ISR cumulative incidence: Ulceration,"[1]; 50 mg/kg SC, Dose 1",1/3
same,ISR cumulative incidence: Erythema,"[1]; 50 mg/kg SC, Dose 2",0/3
same,ISR cumulative incidence: Hyperkeratosis,"[1]; 50 mg/kg SC, Dose 2",2/3
same,ISR cumulative incidence: Nodule,"[1]; 50 mg/kg SC, Dose 2",3/3
same,ISR cumulative incidence: Ulceration,"[1]; 50 mg/kg SC, Dose 2",2/3
same,complete blood counts (CBC) and blood serum chemistries,[1]; PTMs that received SC LEN injections,No abnormalities or significant changes
same,"injection site reactions (ISRs), severity",[1]; some animals following some SC LEN injections,Mild to moderate
same,reduced potency against SIVmac239 compared with HIV-1 NL4-3 and stHIV-A19,SIVmac239,approximately 6 fold
same,EC50,"SIVmac239; Simian immunodeficiency virus, 168 h, supernatant vRNA 7 days post-infection, mean ± SD of three independent experiments, read-out: mean EC50 against SIVmac239",0.502 nM

# From paper PMC10470178, “Long-acting lenacapavir protects macaques against intravenous challenge with simian-tropic HIV” (eBioMedicine, 2023)
